# Tests used:
# Assay type in all cases: toxicity, cell-based
# U2OS = test: Incucyte cell viability with U2OS; conditions: human, 10 µM, compound concentration 10 uM
# HEK-293T = test: Incucyte cell viability with HEK293T; conditions: human, 10 µM, compound concentration 10 uM
# Fibroblast = test: Incucyte cell viability with human fibroblast; conditions: 10 µM, compound concentration 10 uM
# Note: unitless GR value; below 1 slowed growth and below 0 cell loss.
Compound,"Growth Rate (U2OS; 6 h, replicate number 1)","Growth Rate (U2OS; 6 h, replicate number 2)","Growth Rate (U2OS; 12 h, replicate number 2)","Growth Rate (U2OS; 18 h, replicate number 2)","Growth Rate (U2OS; 24 h, replicate number 1)","Growth Rate (U2OS; 24 h, replicate number 2)","Growth Rate (HEK-293T; 12 h, replicate number 2)","Growth Rate (HEK-293T; 24 h, replicate number 2)","Growth Rate (U2OS; 0 h, replicate number 1)","Growth Rate (HEK-293T; 6 h, replicate number 2)","Growth Rate (Fibroblast; 6 h, replicate number 1)","Growth Rate (Fibroblast; 12 h, replicate number 1)","Growth Rate (Fibroblast; 12 h, replicate number 2)","Growth Rate (Fibroblast; 18 h, replicate number 2)","Growth Rate (Fibroblast; 24 h, replicate number 2)","Growth Rate (HEK-293T; 6 h, replicate number 1)","Growth Rate (Fibroblast; 0 h, replicate number 1)","Growth Rate (Fibroblast; 18 h, replicate number 1)","Growth Rate (HEK-293T; 18 h, replicate number 1)","Growth Rate (HEK-293T; 18 h, replicate number 2)",other results
CCCCc1c(-c2ccccc2)nc(N)nc1-c1ccc(OCc2ccccc2)c(F)c1F,0.5,0.27,0.36,0.55,1,0.77,0.89,0.99,,,,,,,,,,,,,"Growth Rate (U2OS; 0 h, replicate number 2): -0.86; Growth Rate (HEK-293T; 0 h, replicate number 1): -0.23; Growth Rate (HEK-293T; 0 h, replicate number 2): -0.46; Growth Rate (Fibroblast; 0 h, replicate number 2): 0.8"
C[C@@H](CN1CCC(Cc2ccccc2)CC1)[C@@H](O)c1ccc(O)cc1,0.07,,,0.99,0.96,,0.86,,-0.54,0.36,-0.49,-0.59,0.48,0.53,0.68,,,,,,"Growth Rate (U2OS; 0 h, replicate number 2): -0.81; Growth Rate (U2OS; 12 h, replicate number 1): 0.85; Growth Rate (U2OS; 18 h, replicate number 1): 0.98; Growth Rate (HEK-293T; 0 h, replicate number 2): 0.98; Growth Rate (Fibroblast; 6 h, replicate number 2): -0.45; Growth Rate (Fibroblast; 24 h, replicate number 1): 0.78"
CC(C)(c1ccc(O)cc1)c1ccc(O)cc1 [BISPHENOL A],,,1,,,0.96,,,,,,0.37,0.83,0.7,,0.82,,,,,"Growth Rate (Fibroblast; 6 h, replicate number 2): -0.05; Growth Rate (Fibroblast; 24 h, replicate number 1): 0.57"
Fc1ccc(Cl)cc1-c1nc(Nc2ccncc2)c2nccnc2n1,0.78,0.55,0.77,0.87,0.95,0.75,0.91,,-0.59,0.79,,,,,,,,,,,"Growth Rate (U2OS; 0 h, replicate number 2): 0.75; Growth Rate (U2OS; 12 h, replicate number 1): 0.86; Growth Rate (U2OS; 18 h, replicate number 1): 0.67; Growth Rate (HEK-293T; 0 h, replicate number 1): -0.93; Growth Rate (Fibroblast; 0 h, replicate number 2): -0.5"
CCOC(=O)c1ccc(CN(Cc2ccc(-c3cccc(S(C)(=O)=O)c3)cc2)S(=O)(=O)c2c(C)cc(C)cc2C)o1,,,,,,0.89,0.98,,,,,0.59,0.87,0.84,0.87,,0.32,0.86,,,"Growth Rate (HEK-293T; 0 h, replicate number 1): -0.26; Growth Rate (Fibroblast; 6 h, replicate number 2): 0.38; Growth Rate (Fibroblast; 24 h, replicate number 1): 0.99"
NS(=O)(=O)c1cncc(-c2nc(NCc3ccccn3)c3c(-c4ccccc4)cccc3n2)c1 [BMS-919373],,,0.71,0.59,,0.63,0.24,0.26,0.72,0.33,,-1,,,,0.01,,0.34,0.69,0.22,"Growth Rate (U2OS; 0 h, replicate number 2): -0.7; Growth Rate (U2OS; 12 h, replicate number 1): 0.98; Growth Rate (HEK-293T; 12 h, replicate number 1): 0.64; Growth Rate (HEK-293T; 24 h, replicate number 1): 1; Growth Rate (Fibroblast; 0 h, replicate number 2): -0.92"
CN1CCN(c2ccc(/C=C(\C#N)c3ccccc3Br)cc2)CC1.Cl.Cl,0.94,,,,,,0.47,0.71,,0.54,0.32,0.42,-0.18,-0.18,-0.21,0,0.9,0.18,0.38,0.48,"Growth Rate (HEK-293T; 0 h, replicate number 2): -0.96; Growth Rate (HEK-293T; 12 h, replicate number 1): 0.24; Growth Rate (HEK-293T; 24 h, replicate number 1): 0.46; Growth Rate (Fibroblast; 0 h, replicate number 2): 0.65; Growth Rate (Fibroblast; 6 h, replicate number 2): 0.09; Growth Rate (Fibroblast; 24 h, replicate number 1): 0.05"
CCn1ccc(Nc2ncc3c(n2)-c2c(nn(C)c2-c2ccc(-c4cnn(C)c4)cc2Cl)CC3)n1,,0.57,0.22,0.13,0.21,-0.03,-0.54,-0.33,-1,-0.71,0.64,0.87,0.65,0.5,0.19,-0.49,-1,0.32,-0.28,-0.43,"Growth Rate (U2OS; 18 h, replicate number 1): 0.27; Growth Rate (HEK-293T; 12 h, replicate number 1): -0.39; Growth Rate (HEK-293T; 24 h, replicate number 1): -0.24; Growth Rate (Fibroblast; 24 h, replicate number 1): 0.46"
Cn1ncc(NC(=O)c2nc(-c3c(F)cccc3F)sc2N)c1N1CC[C@@H](N)[C@H](F)CC1,,,,,,0.96,,0.77,-1,,,,,,,,-1,,,,"Growth Rate (HEK-293T; 0 h, replicate number 1): -1; Growth Rate (HEK-293T; 0 h, replicate number 2): -0.31"
Cc1ncsc1-c1ccc(CNC(=O)[C@@H]2C[C@@H](O)CN2C(=O)[C@@H](NC(=O)CCCCNC(=O)c2ccc(-c3ccc(N4CCN(C)CC4)c(NC(=O)c4c[nH]c(=O)cc4C(F)(F)F)c3)cc2)C(C)(C)C)cc1,0.86,0.89,0.84,0.79,0.61,0.71,,0.72,0.71,0.8,0.29,0.65,0.74,0.86,,,0.97,0.33,,0.86,"Growth Rate (U2OS; 18 h, replicate number 1): 0.96; Growth Rate (HEK-293T; 0 h, replicate number 1): -0.12; Growth Rate (Fibroblast; 0 h, replicate number 2): 0.64; Growth Rate (Fibroblast; 24 h, replicate number 1): 0.46"
C=CC(=O)N1CCC[C@@H](n2nc(-c3ccc(Oc4ccccc4)cc3)c3c(N)ncnc32)C1 [IBRUTINIB],-0.04,0.61,0.61,,0.63,0.55,-0.25,0.25,-0.06,-0.48,0.04,,0.79,,,-0.5,,0.66,0.36,0.27,"Growth Rate (U2OS; 0 h, replicate number 2): 0.8; Growth Rate (U2OS; 12 h, replicate number 1): 0.53; Growth Rate (U2OS; 18 h, replicate number 1): 0.56; Growth Rate (HEK-293T; 0 h, replicate number 2): -1; Growth Rate (HEK-293T; 12 h, replicate number 1): -0.04; Growth Rate (HEK-293T; 24 h, replicate number 1): 0.51; Growth Rate (Fibroblast; 6 h, replicate number 2): 0.23"
C[C@@H](CN1CC[C@@]2(C)c3cccc(O)c3C[C@@H]1C2(C)C)OCc1ccccc1.Cl,0.53,0.85,0.78,0.98,0.79,,,0.96,-0.32,,0.03,,0.93,1,0.98,0.31,-1,,0.77,0.95,"Growth Rate (U2OS; 12 h, replicate number 1): 0.61; Growth Rate (U2OS; 18 h, replicate number 1): 0.81; Growth Rate (HEK-293T; 0 h, replicate number 1): 0.44; Growth Rate (HEK-293T; 0 h, replicate number 2): -0.22; Growth Rate (HEK-293T; 12 h, replicate number 1): 0.74; Growth Rate (HEK-293T; 24 h, replicate number 1): 0.8; Growth Rate (Fibroblast; 6 h, replicate number 2): -0.28"
CC(=O)NCC(=O)N1[C@@H]2CC[C@H]1c1ccc(Nc3ncc(C(F)(F)F)c(NC4CCC4)n3)cc12 [PF-03814735],,1,-0.14,-0.08,0.02,-0.08,-0.75,-0.39,-0.94,-0.94,-1,,0.65,0.15,0.08,-0.95,-0.26,0.52,-0.72,-0.55,"Growth Rate (U2OS; 12 h, replicate number 1): -0.05; Growth Rate (U2OS; 18 h, replicate number 1): 0.03; Growth Rate (HEK-293T; 12 h, replicate number 1): -0.89; Growth Rate (HEK-293T; 24 h, replicate number 1): -0.57; Growth Rate (Fibroblast; 24 h, replicate number 1): 0.86"
Cc1cc(CN)cc(C)c1-c1ncn(C)c1-c1cncn1C.Cl,,,0.69,0.99,,,,,,,0.96,,0.59,0.77,0.86,,-1,,0.98,,"Growth Rate (HEK-293T; 0 h, replicate number 1): -0.38; Growth Rate (HEK-293T; 0 h, replicate number 2): 0.26; Growth Rate (Fibroblast; 6 h, replicate number 2): -0.33"
Cc1cc2ncnn2cc1Nc1ncc2c(n1)n(C1CCOCC1)c(=O)n2C [AZD-7648],,,,,0.9,,0.76,,0.4,0.98,,,,0.83,0.93,0.34,,,0.87,0.95,"Growth Rate (HEK-293T; 12 h, replicate number 1): 0.78; Growth Rate (HEK-293T; 24 h, replicate number 1): 0.93; Growth Rate (Fibroblast; 0 h, replicate number 2): 0.27"
CC(C)n1nc(-c2cnc(N)c(OC(F)(F)F)c2)cc1[C@H]1[C@@H]2CN(C3COC3)C[C@@H]21,0.76,,,,0.84,,,,0.6,0.62,,-0.97,0.78,0.91,0.95,,0.52,0.08,,,"Growth Rate (U2OS; 12 h, replicate number 1): 0.92"
